Experimental data published in PubChem BioAssay (NCI).
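48-hour exposure; five concentrations; linearly interpolated endpoints. GI50 marks 50% less growth. Definition used: TGI = concentration required for complete inhibition of growth.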

Legend:
Experiment in all cases: inhibition of tumour cell growth, NCI panel, 48 h
786-0 renal = system: 786-0 renal
A498 renal = system: A498 renal
A549 NSCLC = system: A549 NSCLC
ACHN renal = system: ACHN renal
BT-549 breast = system: BT-549 breast
CAKI-1 renal = system: CAKI-1 renal
CCRF-CEM leukemia = system: CCRF-CEM leukemia
COLO 205 colon = system: COLO 205 colon
DU-145 prostate = system: DU-145 prostate
EKVX NSCLC = system: EKVX NSCLC
HCC-2998 colon = system: HCC-2998 colon
HCT-116 colon = system: HCT-116 colon
HCT-15 colon = system: HCT-15 colon
HL-60(TB) leukemia = system: HL-60(TB) leukemia
HOP-62 NSCLC = system: HOP-62 NSCLC
HOP-92 NSCLC = system: HOP-92 NSCLC
HS 578T breast = system: HS 578T breast
HT29 colon = system: HT29 colon
IGROV1 ovarian = system: IGROV1 ovarian
K-562 leukemia = system: K-562 leukemia
KM12 colon = system: KM12 colon
LOX IMVI melanoma = system: LOX IMVI melanoma
M14 melanoma = system: M14 melanoma
MALME-3M melanoma = system: MALME-3M melanoma
MCF7 breast = system: MCF7 breast
MDA-MB-231 breast = system: MDA-MB-231 breast
MDA-MB-435 = system: MDA-MB-435
MDA-MB-468 breast = system: MDA-MB-468 breast
MOLT-4 leukemia = system: MOLT-4 leukemia
NCI-H226 lung = system: NCI-H226 lung
NCI-H23 lung = system: NCI-H23 lung
NCI-H460 lung = system: NCI-H460 lung
NCI-H522 lung = system: NCI-H522 lung
NCI/ADR-RES ovarian = system: NCI/ADR-RES ovarian
OVCAR-3 ovarian = system: OVCAR-3 ovarian
OVCAR-4 ovarian = system: OVCAR-4 ovarian
OVCAR-5 ovarian = system: OVCAR-5 ovarian
OVCAR-8 ovarian = system: OVCAR-8 ovarian
PC-3 prostate = system: PC-3 prostate
RPMI-8226 leukemia = system: RPMI-8226 leukemia
RXF 393 renal = system: RXF 393 renal
SF-268 CNS = system: SF-268 CNS
SF-295 CNS = system: SF-295 CNS
SF-539 CNS = system: SF-539 CNS
SK-MEL-2 melanoma = system: SK-MEL-2 melanoma
SK-MEL-28 melanoma = system: SK-MEL-28 melanoma
SK-MEL-5 melanoma = system: SK-MEL-5 melanoma
SK-OV-3 ovarian = system: SK-OV-3 ovarian
SN12C renal = system: SN12C renal
SNB-19 CNS = system: SNB-19 CNS
SNB-75 CNS = system: SNB-75 CNS
SR leukemia = system: SR leukemia
SW-620 colon = system: SW-620 colon
T-47D breast = system: T-47D breast
TK-10 renal = system: TK-10 renal
U251 CNS = system: U251 CNS
UACC-257 melanoma = system: UACC-257 melanoma
UACC-62 melanoma = system: UACC-62 melanoma
UO-31 renal = system: UO-31 renal

For COc1sc(/C=N/NC(=O)c2[nH]c3ccc(Br)cc3c2-c2ccccc2)cc1Cl, the GI50 (786-0 renal) was 2780 nM, the TGI (786-0 renal) was 41.9 µM and the GI50 (A498 renal) was 11.1 µM. For the same compound, the TGI (A498 renal) was 53.7 µM, the GI50 (A549 NSCLC) was 2640 nM and the TGI (A549 NSCLC) was over 100 µM. It also gave a GI50 (ACHN renal) of 2380 nM, a TGI (ACHN renal) of over 100 µM and a GI50 (BT-549 breast) of 3.72 µM. It also gave a TGI (BT-549 breast) of 8.48 µM, a GI50 (CAKI-1 renal) of 798 nM and a TGI (CAKI-1 renal) of 94.6 µM. For the same compound, the GI50 (CCRF-CEM leukemia) was 3.09 µM, the TGI (CCRF-CEM leukemia) was over 100 µM and the GI50 (COLO 205 colon) was 294 nM. It also gave a TGI (COLO 205 colon) of 728 nM, a GI50 (DU-145 prostate) of 3.23 µM and a TGI (DU-145 prostate) of 32.5 µM. It also gave a GI50 (EKVX NSCLC) of 4.49 µM, a TGI (EKVX NSCLC) of over 100 µM and a GI50 (HCC-2998 colon) of 3.74 µM. The TGI (HCC-2998 colon) was over 100 µM, the GI50 (HCT-116 colon) was 1740 nM and the TGI (HCT-116 colon) was 10.1 µM. The GI50 (HCT-15 colon) was 2960 nM, the TGI (HCT-15 colon) was over 100 µM and the GI50 (HL-60(TB) leukemia) was 1520 nM. The TGI (HL-60(TB) leukemia) was 5.23 µM, the GI50 (HOP-62 NSCLC) was 1000 nM and the TGI (HOP-62 NSCLC) was 13.1 µM. It also gave a GI50 (HOP-92 NSCLC) of 9.72 µM, a TGI (HOP-92 NSCLC) of over 100 µM and a GI50 (HS 578T breast) of 1730 nM. It also gave a TGI (HS 578T breast) of 44.4 µM, a GI50 (HT29 colon) of 1070 nM and a TGI (HT29 colon) of 7.46 µM. The GI50 (IGROV1 ovarian) was 3.05 µM, the TGI (IGROV1 ovarian) was 30.7 µM and the GI50 (K-562 leukemia) was 502 nM. The TGI (K-562 leukemia) was over 100 µM, the GI50 (KM12 colon) was 2790 nM and the TGI (KM12 colon) was over 100 µM. The GI50 (LOX IMVI melanoma) was 1610 nM, the TGI (LOX IMVI melanoma) was 40.7 µM and the GI50 (M14 melanoma) was 2120 nM. It also gave a TGI (M14 melanoma) of over 100 µM, a GI50 (MALME-3M melanoma) of 3.98 µM and a TGI (MALME-3M melanoma) of over 100 µM. It also gave a GI50 (MCF7 breast) of 447 nM, a TGI (MCF7 breast) of over 100 µM and a GI50 (MDA-MB-231 breast) of 3.23 µM. The TGI (MDA-MB-231 breast) was 43.1 µM, the GI50 (MDA-MB-435) was 346 nM and the TGI (MDA-MB-435) was 2600 nM. For the same compound, the GI50 (MDA-MB-468 breast) was 895 nM, the TGI (MDA-MB-468 breast) was 5.54 µM and the GI50 (MOLT-4 leukemia) was 3.3 µM. For the same compound, the TGI (MOLT-4 leukemia) was 26.7 µM, the GI50 (NCI-H226 lung) was 2120 nM and the TGI (NCI-H226 lung) was 8.3 µM. It also gave a GI50 (NCI-H23 lung) of 3.72 µM, a TGI (NCI-H23 lung) of over 100 µM and a GI50 (NCI-H460 lung) of 2790 nM. The TGI (NCI-H460 lung) was 10.7 µM, the GI50 (NCI-H522 lung) was 200 nM and the TGI (NCI-H522 lung) was 566 nM. For the same compound, the GI50 (NCI/ADR-RES ovarian) was 649 nM, the TGI (NCI/ADR-RES ovarian) was 4.58 µM and the GI50 (OVCAR-3 ovarian) was 607 nM. The TGI (OVCAR-3 ovarian) was 11.1 µM, the GI50 (OVCAR-4 ovarian) was 6.38 µM and the TGI (OVCAR-4 ovarian) was over 100 µM. The GI50 (OVCAR-5 ovarian) was 3.28 µM, the TGI (OVCAR-5 ovarian) was 72.9 µM and the GI50 (OVCAR-8 ovarian) was 690 nM. It also gave a TGI (OVCAR-8 ovarian) of 11.5 µM, a GI50 (PC-3 prostate) of 3.06 µM and a TGI (PC-3 prostate) of over 100 µM. It also gave a GI50 (RPMI-8226 leukemia) of 1960 nM, a TGI (RPMI-8226 leukemia) of over 100 µM and a GI50 (RXF 393 renal) of 935 nM. The TGI (RXF 393 renal) was over 100 µM, the GI50 (SF-268 CNS) was 2670 nM and the TGI (SF-268 CNS) was over 100 µM. It also gave a GI50 (SF-295 CNS) of 1200 nM, a TGI (SF-295 CNS) of 27.2 µM and a GI50 (SF-539 CNS) of 1230 nM. For the same compound, the TGI (SF-539 CNS) was 4.55 µM, the GI50 (SK-MEL-2 melanoma) was 1540 nM and the TGI (SK-MEL-2 melanoma) was over 100 µM. It also gave a GI50 (SK-MEL-28 melanoma) of 3.26 µM, a TGI (SK-MEL-28 melanoma) of over 100 µM and a GI50 (SK-MEL-5 melanoma) of 1730 nM. The TGI (SK-MEL-5 melanoma) was 4.36 µM, the GI50 (SK-OV-3 ovarian) was 741 nM and the TGI (SK-OV-3 ovarian) was 22.8 µM. The GI50 (SN12C renal) was 3.16 µM, the TGI (SN12C renal) was over 100 µM and the GI50 (SNB-19 CNS) was 4.22 µM. The TGI (SNB-19 CNS) was over 100 µM, the GI50 (SNB-75 CNS) was 740 nM and the TGI (SNB-75 CNS) was 26.9 µM. For the same compound, the GI50 (SR leukemia) was 1000 nM, the TGI (SR leukemia) was over 100 µM and the GI50 (SW-620 colon) was 2880 nM. The TGI (SW-620 colon) was over 100 µM, the GI50 (T-47D breast) was 6.62 µM and the TGI (T-47D breast) was over 100 µM. The GI50 (TK-10 renal) was 4.48 µM, the TGI (TK-10 renal) was over 100 µM and the GI50 (U251 CNS) was 3.39 µM. For the same compound, the TGI (U251 CNS) was 86.6 µM, the GI50 (UACC-257 melanoma) was 5.78 µM and the TGI (UACC-257 melanoma) was over 100 µM. For the same compound, the GI50 (UACC-62 melanoma) was 696 nM, the TGI (UACC-62 melanoma) was over 100 µM and the GI50 (UO-31 renal) was 2210 nM. It also gave a TGI (UO-31 renal) of over 100 µM.
